Laboratory results taken from patent US12458644B2, “Process for preparing solutions comprising biopterin derivatives” (VASOPHARM GMBH, priority 2014, dated 2025).
Structures can show the parent of a compound that is named as a salt. Values belong to the compound of their own block, whether it stands above or below them.

What was measured:
experimental TBI = conditions: literature: WO 2004/084906, Terpolilli et al. 2009; cited from earlier work
[1] = Stability of VAS203 dissolved in solution buffer at pH 7.4; assay type: physicochemical; conditions: oxidises to 4-Amino-7,8-dihydro-L-biopterin and 4-Amino-L-biopterin
Method: At a pH of 7.4 4-Amino-(6R,S)-5,6,7,8-tetrahydro-L-biopterin dihydrochloride dihydrate (VAS203) dissolved in solution buffer is very unstable and oxidises in its two metabolites 4-Amino-7,8-dihydro-L-biopterin and 4-Amino-L-biopterin. Therefore, it is important that the VAS203 solution is prepared with degassed buffer and after preparation of the VAS203 solution the lyophilisation should be started without delay.

[2] = Stability of reconstituted solution of VAS203 in 50 mL PP syringe at room temperature; assay type: physicochemical; conditions: for Further related substances, each / Further related substances, total / Purity (HPLC) (6R)-4-Amino-5,6,7,8-tetrahydro-L-biopterin / Purity (HPLC) (6S)-4-Amino-5,6,7,8-tetrahydro-L-biopterin / Related substances (HPLC) A: 4-Amino-7,8-dihydro-L-biopterin / Related substances (HPLC) B: Σ (6R)- and (6S)-5,6,7,8-Tetrahydro-L-biopterin / Related substances (HPLC) C: Σ 1-[(6R)- and (6S)-2,4-Diamino-5,6,7,8-tetrahydropteridin-6-yl]propanol / Reconstituted Solution pH / Assay (HPLC) (calculated on anhydrous and chloride-free basis): PP syringe; for Reconstituted Solution pH / Assay (HPLC) (calculated on anhydrous and chloride-free basis): reconstituted in 50 mL WFI; for Assay (HPLC) (calculated on anhydrous and chloride-free basis): day-light
Method: A stability study at room temperature was carried out for the drug substance VAS203 to test for any degradation of the reconstituted solution in transparent 50 mL polypropylene (PP) syringes which are used in clinical studies. During stability testing the PP syringes were exposed to normal day-light. Solution content, purity, related substances and pH were monitored for 48 hours (initial, 6, 24, 48 hours after preparation).

Compound: CC(O)C(O)C1CNc2nc(N)nc(N)c2N1 [4-Amino-5,6,7,8-tetrahydro-L-biopterin]
- Efficacy in experimental TBI (experimental TBI): effective

Compound: CC(O)C(O)C1=Nc2c(N)nc(N)nc2NC1 [4-Amino-7,8-dihydro-L-biopterin]
- Efficacy in experimental TBI (experimental TBI): effective

- Stability in solution buffer [1]: very unstable
- Period over which reconstituted solution is stable ([2]; 50 mL PP syringe, room temperature, exposed to normal day-light): 48 h
- Further related substances, each ([2]; room temperature, 0 hours): 0.2 % area
- Further related substances, total ([2]; room temperature, 0 hours): 0.5 % area
- Purity (HPLC) (6R)-4-Amino-5,6,7,8-tetrahydro-L-biopterin ([2]; room temperature, 0 hours): 55.5 % area
- Purity (HPLC) (6S)-4-Amino-5,6,7,8-tetrahydro-L-biopterin ([2]; room temperature, 0 hours): 39.0 % area
- Related substances (HPLC) A: 4-Amino-7,8-dihydro-L-biopterin ([2]; room temperature, 0 hours): 3.3 % area
- Related substances (HPLC) B: Σ (6R)- and (6S)-5,6,7,8-Tetrahydro-L-biopterin ([2]; room temperature, 0 hours): 0.6 % area
- Related substances (HPLC) C: Σ 1-[(6R)- and (6S)-2,4-Diamino-5,6,7,8-tetrahydropteridin-6-yl]propanol ([2]; room temperature, 0 hours): 1.5 % area
- Further related substances, each ([2]; room temperature, 6 hours): 0.2 % area
- Further related substances, total ([2]; room temperature, 6 hours): 0.6 % area
- Purity (HPLC) (6R)-4-Amino-5,6,7,8-tetrahydro-L-biopterin ([2]; room temperature, 6 hours): 55.4 % area
- Purity (HPLC) (6S)-4-Amino-5,6,7,8-tetrahydro-L-biopterin ([2]; room temperature, 6 hours): 38.5 % area
- Related substances (HPLC) A: 4-Amino-7,8-dihydro-L-biopterin ([2]; room temperature, 6 hours): 3.8 % area
- Related substances (HPLC) B: Σ (6R)- and (6S)-5,6,7,8-Tetrahydro-L-biopterin ([2]; room temperature, 6 hours): 0.6 % area
- Related substances (HPLC) C: Σ 1-[(6R)- and (6S)-2,4-Diamino-5,6,7,8-tetrahydropteridin-6-yl]propanol ([2]; room temperature, 6 hours): 1.6 % area
- Further related substances, each ([2]; room temperature, 24 hours): 0.2 % area
- Further related substances, total ([2]; room temperature, 24 hours): 0.6 % area
- Purity (HPLC) (6R)-4-Amino-5,6,7,8-tetrahydro-L-biopterin ([2]; room temperature, 24 hours): 55.4 % area
- Purity (HPLC) (6S)-4-Amino-5,6,7,8-tetrahydro-L-biopterin ([2]; room temperature, 24 hours): 38.4 % area
- Related substances (HPLC) A: 4-Amino-7,8-dihydro-L-biopterin ([2]; room temperature, 24 hours): 3.8 % area
- Related substances (HPLC) B: Σ (6R)- and (6S)-5,6,7,8-Tetrahydro-L-biopterin ([2]; room temperature, 24 hours): 0.6 % area
- Related substances (HPLC) C: Σ 1-[(6R)- and (6S)-2,4-Diamino-5,6,7,8-tetrahydropteridin-6-yl]propanol ([2]; room temperature, 24 hours): 1.5 % area
- Further related substances, each ([2]; room temperature, 48 hours): 0.1 % area
- Further related substances, total ([2]; room temperature, 48 hours): 0.4 % area
- Purity (HPLC) (6R)-4-Amino-5,6,7,8-tetrahydro-L-biopterin ([2]; room temperature, 48 hours): 55.5 % area
- Purity (HPLC) (6S)-4-Amino-5,6,7,8-tetrahydro-L-biopterin ([2]; room temperature, 48 hours): 38.1 % area
- Related substances (HPLC) A: 4-Amino-7,8-dihydro-L-biopterin ([2]; room temperature, 48 hours): 4.1 % area
- Related substances (HPLC) B: Σ (6R)- and (6S)-5,6,7,8-Tetrahydro-L-biopterin ([2]; room temperature, 48 hours): 0.6 % area
- Related substances (HPLC) C: Σ 1-[(6R)- and (6S)-2,4-Diamino-5,6,7,8-tetrahydropteridin-6-yl]propanol ([2]; room temperature, 48 hours): 1.5 % area
- Reconstituted Solution pH ([2]; room temperature, 0 hours): 7.1
- Reconstituted Solution pH ([2]; room temperature, 24 hours): 7.1
- Reconstituted Solution pH ([2]; room temperature, 48 hours): 7.1
- Assay (HPLC) (calculated on anhydrous and chloride-free basis) ([2]; room temperature, 0 hours): 615 mg
- Assay (HPLC) (calculated on anhydrous and chloride-free basis) ([2]; room temperature, 6 hours): 610 mg
- Assay (HPLC) (calculated on anhydrous and chloride-free basis) ([2]; room temperature, 24 hours): 621 mg
- Assay (HPLC) (calculated on anhydrous and chloride-free basis) ([2]; room temperature, 48 hours): 626 mg
- Light sensitivity ([2]; reconstituted solution, normal day-light, up to 48 hours): not observed
- Degradation products formed ([2]; reconstituted solution, room temperature, 48 hours): No degradation products were formed
- Use-by date after preparation of the solution ([2]; reduced to avoid microbiological contamination): 27 h
Compound: CC(O)C(O)C1CNc2nc(N)nc(N)c2N1 [VAS203, 4-Amino-(6R,S)-5,6,7,8-tetrahydro-L-biopterin dihydrochloride dihydrate]
